Where a name gives a salt, the structure may show the parent alone.
Legend:
[1] = test system: panel of haematalogical cancer cell lines; assay: Compound A with BTK inhibitors, 72-hour in vitro proliferation assays; type: cell-based; conditions: combination Compound A × listed BTK inhibitor, 72-hour proliferation
[2] = test system: panel of breast cancer cell lines; assay: Compound A with targeted agents and chemotherapies, 72-hour in vitro proliferation assays; type: cell-based; conditions: 72-hour proliferation
[3] = AU565 cell line, compound A × partner
[4] = BT-20 cell line, compound A × partner
[5] = BT-549 cell line, compound A × partner
[6] = CAL-51 cell line, compound A × partner
[7] = CAL-85-1 cell line, compound A × partner
[8] = CAL-120 cell line, compound A × partner
[9] = CAL-148 cell line, compound A × partner
[10] = CAMA-1 cell line, compound A × partner
[11] = DU-4475 cell line, compound A × partner
[12] = EVSA-T cell line, compound A × partner

Structure (SMILES): CC#CC(=O)N1CCC[C@H]1c1nc(-c2ccc(C(=O)Nc3ccccn3)cc2)c2c(N)nccn12 [Acalabrutinib]
- Best CI ([1]; HBL-1 cells): 0.09
- Best CI Level ([1]; HBL-1 cells): 55
- Bliss Volume ([1]; HBL-1 cells): 4.86
- HSA volume ([1]; HBL-1 cells): 9.39
- Loewe Volume ([1]; HBL-1 cells): 9.09
- Synergy Score ([1]; HBL-1 cells): 7.28
- Best CI ([1]; OCI-Ly10 cells): 0.69
- Best CI Level ([1]; OCI-Ly10 cells): 80
- Bliss Volume ([1]; OCI-Ly10 cells): −1.82
- HSA volume ([1]; OCI-Ly10 cells): 0.62
- Loewe Volume ([1]; OCI-Ly10 cells): −0.84
- Synergy Score ([1]; OCI-Ly10 cells): 1.59
- Best CI ([1]; SU-DHL-2 cells): 0.39
- Best CI Level ([1]; SU-DHL-2 cells): 20
- Bliss Volume ([1]; SU-DHL-2 cells): 1.10
- HSA volume ([1]; SU-DHL-2 cells): 1.30
- Loewe Volume ([1]; SU-DHL-2 cells): 2.29
- Synergy Score ([1]; SU-DHL-2 cells): 1.76
- Best CI ([1]; SU-DHL-4 cells): 0.90
- Best CI Level ([1]; SU-DHL-4 cells): 80
- Bliss Volume ([1]; SU-DHL-4 cells): 0.66
- HSA volume ([1]; SU-DHL-4 cells): −3.54
- Loewe Volume ([1]; SU-DHL-4 cells): −2.10
- Synergy Score ([1]; SU-DHL-4 cells): 1.02
- Best CI ([1]; SU-DHL-8 cells): 0.79
- Best CI Level ([1]; SU-DHL-8 cells): 20
- Bliss Volume ([1]; SU-DHL-8 cells): 3.28
- HSA volume ([1]; SU-DHL-8 cells): −5.31
- Loewe Volume ([1]; SU-DHL-8 cells): −3.08
- Synergy Score ([1]; SU-DHL-8 cells): 0.52
- Best CI ([1]; TMD8 cells): 0.09
- Best CI Level ([1]; TMD8 cells): 80
- Bliss Volume ([1]; TMD8 cells): 2.07
- HSA volume ([1]; TMD8 cells): 3.89
- Loewe Volume ([1]; TMD8 cells): 2.90
- Synergy Score ([1]; TMD8 cells): 3.60
- Best CI ([1]; U-2932 cells): 0.49
- Best CI Level ([1]; U-2932 cells): 65
- Bliss Volume ([1]; U-2932 cells): 5.67
- HSA volume ([1]; U-2932 cells): 7.07
- Loewe Volume ([1]; U-2932 cells): 7.67
- Synergy Score ([1]; U-2932 cells): 4.74

Structure (SMILES): CC(=O)c1c(C)c2cnc(Nc3ccc(N4CCNCC4)cn3)nc2n(C2CCCC2)c1=O [PD-0332991]
- Best CI [2, 3]: 1.01
- Bliss Volume [2, 3]: −1.48
- HSA volume [2, 3]: −4.75
- Loewe Volume [2, 3]: −4.99
- Synergy Score [2, 3]: 1.50
- Best CI [2, 4]: 1.30
- Bliss Volume [2, 4]: −2.05
- HSA volume [2, 4]: −0.62
- Loewe Volume [2, 4]: −1.20
- Synergy Score [2, 4]: 3.95
- Best CI [2, 5]: 1.07
- Bliss Volume [2, 5]: 5.11
- HSA volume [2, 5]: 3.60
- Loewe Volume [2, 5]: 5.15
- Synergy Score [2, 5]: 3.67
- Best CI [2, 6]: 0.82
- Bliss Volume [2, 6]: −3.23
- HSA volume [2, 6]: −1.09
- Loewe Volume [2, 6]: −1.26
- Synergy Score [2, 6]: 0.38
- Best CI [2, 7]: 0.75
- Bliss Volume [2, 7]: −7.60
- HSA volume [2, 7]: −8.20
- Loewe Volume [2, 7]: −7.47
- Synergy Score [2, 7]: 0.30
- Best CI [2, 8]: 1.81
- Bliss Volume [2, 8]: −0.11
- HSA volume [2, 8]: −7.17
- Loewe Volume [2, 8]: −6.92
- Synergy Score [2, 8]: 0.11
- Best CI [2, 9]: 0.21
- Bliss Volume [2, 9]: −2.31
- HSA volume [2, 9]: −5.69
- Loewe Volume [2, 9]: −4.24
- Synergy Score [2, 9]: 0.81
- Best CI [2, 10]: 0.49
- Bliss Volume [2, 10]: −4.96
- HSA volume [2, 10]: −11.74
- Loewe Volume [2, 10]: −11.95
- Synergy Score [2, 10]: 0.99
- Best CI [2, 11]: 0.97
- Bliss Volume [2, 11]: 0.05
- HSA volume [2, 11]: −1.86
- Loewe Volume [2, 11]: −0.06
- Synergy Score [2, 11]: 0.30
- Best CI [2, 12]: 0.77
- Bliss Volume [2, 12]: −4.20
- HSA volume [2, 12]: −6.37
- Loewe Volume [2, 12]: −5.67
- Synergy Score [2, 12]: 0.21
- Best CI ([2]; HCC38, compound A × partner): 0.19
- Bliss Volume ([2]; HCC38, compound A × partner): −13.23
- HSA volume ([2]; HCC38, compound A × partner): −17.15
- Loewe Volume ([2]; HCC38, compound A × partner): −16.79
- Synergy Score ([2]; HCC38, compound A × partner): 0.01
- Best CI ([2]; HCC70, compound A × partner): 0.68
- Bliss Volume ([2]; HCC70, compound A × partner): 4.80
- HSA volume ([2]; HCC70, compound A × partner): 3.64
- Loewe Volume ([2]; HCC70, compound A × partner): 4.83
- Synergy Score ([2]; HCC70, compound A × partner): 8.66
- Best CI ([2]; HCC1143, compound A × partner): 0.75
- Bliss Volume ([2]; HCC1143, compound A × partner): −2.16
- HSA volume ([2]; HCC1143, compound A × partner): −3.77
- Loewe Volume ([2]; HCC1143, compound A × partner): −0.95
- Synergy Score ([2]; HCC1143, compound A × partner): 1.96
- Best CI ([2]; HCC1569, compound A × partner): 0.78
- Bliss Volume ([2]; HCC1569, compound A × partner): 8.10
- HSA volume ([2]; HCC1569, compound A × partner): 4.93
- Loewe Volume ([2]; HCC1569, compound A × partner): 8.19
- Synergy Score ([2]; HCC1569, compound A × partner): 5.78
- Best CI ([2]; HCC1806, compound A × partner): 0.02
- Bliss Volume ([2]; HCC1806, compound A × partner): −1.37
- HSA volume ([2]; HCC1806, compound A × partner): −4.31
- Loewe Volume ([2]; HCC1806, compound A × partner): −1.04
- Synergy Score ([2]; HCC1806, compound A × partner): 0.99
- Best CI ([2]; HCC1937, compound A × partner): 0.28
- Bliss Volume ([2]; HCC1937, compound A × partner): 14.96
- HSA volume ([2]; HCC1937, compound A × partner): 11.05
- Loewe Volume ([2]; HCC1937, compound A × partner): 14.74
- Synergy Score ([2]; HCC1937, compound A × partner): 21.45
- Best CI ([2]; HCC1954, compound A × partner): 0.47
- Bliss Volume ([2]; HCC1954, compound A × partner): −7.91
- HSA volume ([2]; HCC1954, compound A × partner): −8.72
- Loewe Volume ([2]; HCC1954, compound A × partner): −7.32
- Synergy Score ([2]; HCC1954, compound A × partner): 1.20
- Best CI ([2]; HCC2218, compound A × partner): 1.10
- Bliss Volume ([2]; HCC2218, compound A × partner): −0.96
- HSA volume ([2]; HCC2218, compound A × partner): −1.25
- Loewe Volume ([2]; HCC2218, compound A × partner): −3.22
- Synergy Score ([2]; HCC2218, compound A × partner): 7.27
- Best CI ([2]; HDQ-P1, compound A × partner): 0.36
- Bliss Volume ([2]; HDQ-P1, compound A × partner): 0.47
- HSA volume ([2]; HDQ-P1, compound A × partner): −6.53
- Loewe Volume ([2]; HDQ-P1, compound A × partner): −11.86
- Synergy Score ([2]; HDQ-P1, compound A × partner): 0.17
- Best CI ([2]; HMC-1-8, compound A × partner): 0.47
- Bliss Volume ([2]; HMC-1-8, compound A × partner): 13.91
- HSA volume ([2]; HMC-1-8, compound A × partner): 7.82
- Loewe Volume ([2]; HMC-1-8, compound A × partner): 8.09
- Synergy Score ([2]; HMC-1-8, compound A × partner): 12.76

Structure (SMILES): CC/C(=C(\c1ccccc1)c1ccc(OCCN(C)C)cc1)c1ccccc1 [Tamoxifen Citrate]
- Best CI [2, 3]: 0.63
- Best CI [2, 4]: 1.22
- Best CI ([2]; BT-474 cell line, compound A × partner): 0.67
- Best CI [2, 5]: 0.42
- Best CI [2, 6]: 1.06
- Best CI [2, 7]: 0.49
- Best CI [2, 9]: 0.69
- Best CI [2, 10]: 0.27
- Best CI [2, 11]: 0.80
- Best CI [2, 12]: 0.68
- Best CI ([2]; HCC38, compound A × partner): 0.98
- Best CI ([2]; HCC70, compound A × partner): 0.50
- Best CI ([2]; HCC1143, compound A × partner): 0.19
- Best CI ([2]; HCC1569, compound A × partner): 0.50
- Best CI ([2]; HCC1806, compound A × partner): 0.84
- Best CI ([2]; HCC1937, compound A × partner): 1.02
- Best CI ([2]; HCC1954, compound A × partner): 0.18
- Best CI ([2]; HCC2218, compound A × partner): 0.45
- Best CI ([2]; HDQ-P1, compound A × partner): 0.94
- Best CI ([2]; HMC-1-8, compound A × partner): 0.58
- Best CI ([2]; JIMT-1, compound A × partner): 0.38
- Best CI ([2]; KPL-1, compound A × partner): 0.54
- Best CI ([2]; MCF7 cells, Compound A × partner agent): 0.41
- Best CI ([2]; MDA-MB-175-VII cells, Compound A × partner agent): 0.36
- Best CI ([2]; MDA-MB-231 cells, Compound A × partner agent): 1.06
- Best CI ([2]; MDA-MB-361 cells, Compound A × partner agent): 0.48
- Best CI ([2]; MDA-MB-436 cells, Compound A × partner agent): 0.30
- Best CI ([2]; MDA-MB-453 cells, Compound A × partner agent): 0.45
- Best CI ([2]; MDA-MB-468 cells, Compound A × partner agent): 0.61
- Best CI ([2]; SK-BR-3 cells, combination of compound A with the named agent): 0.66
- Best CI ([2]; SUM159PT cells, combination of compound A with the named agent): 0.20
- Best CI ([2]; T47D cells, combination of compound A with the named agent): 0.42
- Best CI ([2]; ZR-75-1 cells, combination of compound A with the named agent): 0.99
- Best CI ([2]; ZR-75-30 cells, combination of compound A with the named agent): 1.00

— patent US11931424B2, “Combination MCL-1 inhibitors with anti-body drug conjugates” (Gilead Sciences, Inc., priority 2021, dated 2024)
